Assay results taken from PMC9307114, “Discovery and SAR analysis of phenylbenzo[d][1,3]dioxole-based proprotein convertase subtilisin/kexin type 9 inhibitors” (Journal of Enzyme Inhibition and Medicinal Chemistry, 2022).

Experiments:
PCSK9/LDLR PPI = PCSK9/LDLR PPI (Homo sapiens, UniProt Q8NBP7); assay: PCSK9-LDLR TR-FRET assay (PCSK9/LDLR PPI inhibitory screening); assay type: binding; details: 10 µM; mean of three experiments; read-out: PCSK9 percentage inhibitory rate
Description: The PCSK9/LDLR time-resolved fluorescence resonance energy transfer (TR-FRET) assay was performed to evaluate the activity of synthesised compounds in inhibition of PCSK9-LDLR binding. The A series compounds were firstly synthesised for the PCSK9/LDLR PPI inhibitory test. […] Therefore, a group of A12 derivatives (B series) were synthesised with 4-chlorobenzyl substituted in the amino group and various substitutions introduced to the carboxylic group. […] To confirm whether the 4-chloromethyl group is essential for the PPI inhibitory activity, a new series of compounds (C series) were synthesised with the 4-chloromethyl group replaced by 4-methoxymethyl moiety. The inhibitory activity was observed, most likely resulting from the 4-methoxymethyl substitution (Table 3).
The compounds were dissolved in 100% DMSO; then 2 µL of the dilution was added to a 20 µL of reaction to keep […] in all of reactions. The binding reaction was conducted at room temperature. The reaction mixture in assay buffer contains PCSK9, the indicated amount of the inhibitor, ligand LDLR, and the reaction dyes. The reaction mixture was incubated for 120 min before detection of the TR-FRET signal. Fluorescence signals for both the donor and acceptor dyes were measured using a Tecan Infinite M1000 plate reader. TR-FRET was recorded as the ratio of the fluorescence of the acceptor and the donor dyes (acceptor/donor). The TR-FRET data were analysed using Graphpad Prism software.

HepG2 cells = assay: MTT assay on HepG2 cells; assay type: cell-based; details: Homo sapiens, mean of three experiments, read-out: HepG2 percentage inhibitory rate

PCSK9/LDLR PPI, sequence (Q8NBP7 153-692): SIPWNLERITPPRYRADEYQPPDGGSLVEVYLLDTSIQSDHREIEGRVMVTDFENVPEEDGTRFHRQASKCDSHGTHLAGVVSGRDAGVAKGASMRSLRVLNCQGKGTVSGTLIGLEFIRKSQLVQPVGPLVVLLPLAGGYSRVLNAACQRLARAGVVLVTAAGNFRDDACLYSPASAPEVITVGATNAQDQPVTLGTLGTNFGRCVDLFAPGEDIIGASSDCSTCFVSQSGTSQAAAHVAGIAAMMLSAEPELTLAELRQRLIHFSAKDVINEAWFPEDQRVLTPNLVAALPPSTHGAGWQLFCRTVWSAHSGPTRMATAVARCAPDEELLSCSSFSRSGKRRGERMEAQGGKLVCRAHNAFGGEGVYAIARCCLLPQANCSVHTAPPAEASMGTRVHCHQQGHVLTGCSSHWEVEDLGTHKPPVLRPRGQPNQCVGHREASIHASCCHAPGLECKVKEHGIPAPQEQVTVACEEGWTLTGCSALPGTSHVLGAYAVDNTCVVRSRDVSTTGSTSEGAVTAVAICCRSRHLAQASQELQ
PCSK9/LDLR PPI, sequence (Q8NBP7 31-152 partner limits assumed): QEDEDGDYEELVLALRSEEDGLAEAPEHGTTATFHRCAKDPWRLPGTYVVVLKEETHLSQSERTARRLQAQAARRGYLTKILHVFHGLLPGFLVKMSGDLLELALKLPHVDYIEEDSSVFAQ

Compound | inhibition at 10 µM (PCSK9/LDLR PPI) | inhibition at 10 µM (HepG2 cells)
O=C(Nc1cc2c(cc1-c1ccc(C(=O)N3CCN(c4ccc(F)cc4)CC3)cc1)OCO2)c1ccc(CCl)cc1 [B17, 4-(Chloromethyl)-N-(6-(4-(4-(4-fluorophenyl)piperazine-1-carbonyl)phenyl)benzo[d][1,3]dioxol-5-yl)benzamide] | 4.07 ± 0.25% | 16.4 ± 1.18%
CCN1CCN(C(=O)c2ccc(-c3cc4c(cc3NC(=O)c3ccc(CCl)cc3)OCO4)cc2)CC1 [B18, 4-(Chloromethyl)-N-(6-(4-(4-ethylpiperazine-1-carbonyl)phenyl)benzo[d][1,3]dioxol-5-yl)benzamide] | 5.66 ± 0.02% | 6.76 ± 0.26%
CC(C)N1CCN(C(=O)c2ccc(-c3cc4c(cc3NC(=O)c3ccc(CCl)cc3)OCO4)cc2)CC1 [B19, 4-(Chloromethyl)-N-(6-(4-(4-isopropylpiperazine-1-carbonyl)phenyl)benzo[d][1,3]dioxol-5-yl)benzamide] | 5.82 ± 0.31% | 8.38 ± 0.81%
CC(C)NC(=O)c1ccc(-c2cc3c(cc2NC(=O)c2ccc(CCl)cc2)OCO3)cc1 [B20, 4-(Chloromethyl)-N-(6-(4-(isopropylcarbamoyl)phenyl)benzo[d][1,3]dioxol-5-yl)benzamide] | 3.15 ± 0.13% | 9.55 ± 0.43%
COCc1ccc(C(=O)Nc2cc3c(cc2-c2ccc(C(=O)Nc4cc(OC)cc(OC)c4)cc2)OCO3)cc1 [C1, N-(3,5-dimethoxyphenyl)-4-(6-(4-(methoxymethyl)benzamido)benzo[d][1,3]dioxol-5-yl)benzamide] | 21.6 ± 1.67% | 6.21 ± 0.22%
COCc1ccc(C(=O)Nc2cc3c(cc2-c2ccc(C(=O)N4CCN(C(=O)OC(C)(C)C)CC4)cc2)OCO3)cc1 [C2, Tert-butyl4-(4-(6-(4-(methoxymethyl)benzamido)benzo[d][1,3]dioxol-5-yl)benzoyl)piperazine-1-carboxylate] | 17.8 ± 1.24% | 13.5 ± 1.13%
COCc1ccc(C(=O)Nc2cc3c(cc2-c2ccc(C(=O)N4CCN(c5ccc(OC)cc5)CC4)cc2)OCO3)cc1 [C3, 4-(Methoxymethyl)-N-(6-(4-(4-(4-methoxyphenyl)piperazine-1-carbonyl)phenyl)benzo[d][1,3]dioxol-5-yl)benzamide] | 25.3 ± 2.11% | 6.62 ± 0.45%
COCc1ccc(C(=O)Nc2cc3c(cc2-c2ccc(C(=O)N4CCN(c5ccccc5OC)CC4)cc2)OCO3)cc1 [C4, 4-(Methoxymethyl)-N-(6-(4-(4-(2-methoxyphenyl)piperazine-1-carbonyl)phenyl)benzo[d][1,3]dioxol-5-yl)benzamide] | 7.55 ± 0.71% | 6.77 ± 0.62%
COCc1ccc(C(=O)Nc2cc3c(cc2-c2ccc(C(=O)N4CCN(CCc5ccccc5)CC4)cc2)OCO3)cc1 [C5, 4-(Methoxymethyl)-N-(6-(4-(4-phenethylpiperazine-1-carbonyl)phenyl)benzo[d][1,3]dioxol-5-yl)benzamide] | 5.92 ± 0.32% | 5.63 ± 0.37%
COCc1ccc(C(=O)Nc2cc3c(cc2-c2ccc(C(=O)N4CCN(c5ccccc5)CC4)cc2)OCO3)cc1 [C6, 4-(Methoxymethyl)-N-(6-(4-(4-phenylpiperazine-1-carbonyl)phenyl)benzo[d][1,3]dioxol-5-yl)benzamide] | 3.39 ± 1.67% | 6.15 ± 0.26%
COCc1ccc(C(=O)Nc2cc3c(cc2-c2ccc(C(=O)N4CCN(c5ccc(F)cc5)CC4)cc2)OCO3)cc1 [C7, N-(6-(4-(4-(4-fluorophenyl)piperazine-1-carbonyl)phenyl)benzo[d][1,3]dioxol-5-yl)-4-(methoxymethyl)benzamide] | 33.4 ± 1.52% | 12.8 ± 1.07%
COCc1ccc(C(=O)Nc2cc3c(cc2-c2ccc(C(=O)N4CCN(c5ccc(Cl)cc5)CC4)cc2)OCO3)cc1 [C8, N-(6-(4-(4-(4-chlorophenyl)piperazine-1-carbonyl)phenyl)benzo[d][1,3]dioxol-5-yl)-4-(methoxymethyl)benzamide] | 25.7 ± 1.2% | 14.5 ± 1.22%
